BindingDB's records for doi:10.1016/S0960-894X(97)00319-3 (1997)
pIC50: −log10 of the molar value.

Assay: Inhibition of [125I]ET1 binding to porcine kidney inner medulla membranes

CCc1ccc2c(c1)c(-c1ccc3c(c1)OCO3)c(C(=O)O)c(=O)n2Cc1ccccc1OC [4-Benzo[1,3]dioxol-5-yl-6-ethyl-1-(2-methoxy-benzyl)-2-oxo-1,2-dihydro-quinoline-3-carboxylic acid]
pIC50: 5.89

CCOc1ccc2c(c1)c(-c1ccc(OC)cc1)c(C(=O)O)c(=O)n2Cc1cc(OC)ccc1OC [1-(2,5-Dimethoxy-benzyl)-6-ethoxy-4-(4-methoxy-phenyl)-2-oxo-1,2-dihydro-quinoline-3-carboxylic acid]
pIC50: 6.70

O=C(O)c1c(-c2ccc3c(c2)OCO3)c2ccccc2n(Cc2ccccc2)c1=O [4-Benzo[1,3]dioxol-5-yl-1-benzyl-2-oxo-1,2-dihydro-quinoline-3-carboxylic acid]
pIC50: < 5.00

COc1ccccc1Cn1c(=O)c(C(=O)O)c(-c2ccc3c(c2)OCO3)c2c(OC)c(OC)ccc21 [4-Benzo[1,3]dioxol-5-yl-5,6-dimethoxy-1-(2-methoxy-benzyl)-2-oxo-1,2-dihydro-quinoline-3-carboxylic acid]
pIC50: 5.59

COc1ccc(Cn2c(=O)c(C(=O)O)c(-c3ccc4c(c3)OCO4)c3ccccc32)cc1 [4-Benzo[1,3]dioxol-5-yl-1-(4-methoxy-benzyl)-2-oxo-1,2-dihydro-quinoline-3-carboxylic acid]
pIC50: 5.17

COc1ccccc1Cn1c(=O)c(C(=O)O)c(-c2ccc3c(c2)OCO3)c2ccccc21 [4-Benzo[1,3]dioxol-5-yl-1-(2-methoxy-benzyl)-2-oxo-1,2-dihydro-quinoline-3-carboxylic acid]
pIC50: 6.03

CCOc1ccc2c(c1)c(-c1ccc(OC)cc1OC)c(C(=O)O)c(=O)n2Cc1ccccc1OC [4-(2,4-Dimethoxy-phenyl)-6-ethoxy-1-(2-methoxy-benzyl)-2-oxo-1,2-dihydro-quinoline-3-carboxylic acid]
pIC50: 6.27

CCOc1ccc2c(c1)c(-c1ccc(OC)cc1)c(C(=O)O)c(=O)n2Cc1ccccc1OC [6-Ethoxy-1-(2-methoxy-benzyl)-4-(4-methoxy-phenyl)-2-oxo-1,2-dihydro-quinoline-3-carboxylic acid]
pIC50: 6.30

CCOc1ccc2c(c1)c(-c1ccc3c(c1)OCO3)c(C(=O)O)c(=O)n2Cc1ccccc1OC [4-Benzo[1,3]dioxol-5-yl-6-ethoxy-1-(2-methoxy-benzyl)-2-oxo-1,2-dihydro-quinoline-3-carboxylic acid]
pIC50: 6.35
